Literature values, collected in patent publication US12378302B2, “Fusion molecules and uses thereof” (Foundation Medicine, Inc., priority 2012, dated 2025).
Where two headings read alike, the source gives them in different places.

Legend:
[1] = test system: HER2, PDGFR, VEGFR-2, Bcr-Abl and c-Kit
[2] = biological target: InsR (Homo sapiens, UniProt P06213)
[3] = biological target: EGFR (Homo sapiens, UniProt P00533); conditions: ErbB family vs other kinases
[4] = biological target: T1, PDGFRα (Homo sapiens, UniProt P16234); conditions: read-out: IC50 against PDGFRα
T1 sequence (P16234 24-1089, species assumed): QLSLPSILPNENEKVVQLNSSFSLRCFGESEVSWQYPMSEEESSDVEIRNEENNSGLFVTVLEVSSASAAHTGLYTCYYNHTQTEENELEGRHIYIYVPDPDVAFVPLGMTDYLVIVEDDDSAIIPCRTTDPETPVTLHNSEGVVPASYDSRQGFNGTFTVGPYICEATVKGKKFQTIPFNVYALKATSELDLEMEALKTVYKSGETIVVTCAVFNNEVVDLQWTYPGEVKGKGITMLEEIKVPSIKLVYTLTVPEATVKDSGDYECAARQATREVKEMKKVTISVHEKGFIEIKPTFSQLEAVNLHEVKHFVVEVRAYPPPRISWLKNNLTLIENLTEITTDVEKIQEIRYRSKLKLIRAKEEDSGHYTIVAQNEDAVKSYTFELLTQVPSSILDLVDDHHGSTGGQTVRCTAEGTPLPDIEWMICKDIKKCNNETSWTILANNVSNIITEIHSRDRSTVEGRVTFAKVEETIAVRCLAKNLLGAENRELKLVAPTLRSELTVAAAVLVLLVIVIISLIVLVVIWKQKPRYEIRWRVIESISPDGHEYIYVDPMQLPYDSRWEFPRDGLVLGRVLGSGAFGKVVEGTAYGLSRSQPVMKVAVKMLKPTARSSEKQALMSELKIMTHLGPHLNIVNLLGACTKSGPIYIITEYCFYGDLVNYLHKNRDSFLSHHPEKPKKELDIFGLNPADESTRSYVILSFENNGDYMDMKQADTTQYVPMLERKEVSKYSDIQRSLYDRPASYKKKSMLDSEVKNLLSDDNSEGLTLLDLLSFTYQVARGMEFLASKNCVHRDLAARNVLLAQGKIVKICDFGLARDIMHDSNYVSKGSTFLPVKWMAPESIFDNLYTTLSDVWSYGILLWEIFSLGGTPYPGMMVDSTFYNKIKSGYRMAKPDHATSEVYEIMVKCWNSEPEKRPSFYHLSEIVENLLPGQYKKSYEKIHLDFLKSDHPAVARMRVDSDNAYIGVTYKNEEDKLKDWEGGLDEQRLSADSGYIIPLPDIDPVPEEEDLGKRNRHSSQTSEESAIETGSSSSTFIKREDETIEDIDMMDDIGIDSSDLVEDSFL

[5] = biological target: T1, PDGFRα
[6] = test system: Akt and PDK1
[7] = test system: Abl, Fyn, Kit, Lck, Lyn and Yes
[8] = test system: Abl, Fyn, Kit, Lck, Lyn and Yes; remark: listed apart in the source
[9] = test system: VEGFR2; conditions: VEGFR2/3 vs FGFR1, PDGFRα/β
[10] = biological target: FKBP12 (Homo sapiens, UniProt P62942); conditions: read-out: IC50 mTOR inhibitor of FKBP12
[11] = test system: FGFR1 and EGFR
[12] = biological target: PI3Kγ (Homo sapiens, UniProt P48736); conditions: read-out: Ki PI3Kγ (p110γ)
[13] = test system: phosphorylation of FGFR-1, EGFR or c-Met
[14] = test system: PI3Ks
[15] = test system: PDGFRβ, IGF-1R, EGFR
[16] = test system: Aβ40 production
[17] = test system: Vps34, AKT, PDK1, p70S6K, MEK, ERK, p38, or JNK
[18] = biological target: B-Raf^V600E (Homo sapiens, UniProt P15056, V600E); conditions: V600E vs wild-type
Sequence of B-Raf^V600E (P15056 whole entry V600E): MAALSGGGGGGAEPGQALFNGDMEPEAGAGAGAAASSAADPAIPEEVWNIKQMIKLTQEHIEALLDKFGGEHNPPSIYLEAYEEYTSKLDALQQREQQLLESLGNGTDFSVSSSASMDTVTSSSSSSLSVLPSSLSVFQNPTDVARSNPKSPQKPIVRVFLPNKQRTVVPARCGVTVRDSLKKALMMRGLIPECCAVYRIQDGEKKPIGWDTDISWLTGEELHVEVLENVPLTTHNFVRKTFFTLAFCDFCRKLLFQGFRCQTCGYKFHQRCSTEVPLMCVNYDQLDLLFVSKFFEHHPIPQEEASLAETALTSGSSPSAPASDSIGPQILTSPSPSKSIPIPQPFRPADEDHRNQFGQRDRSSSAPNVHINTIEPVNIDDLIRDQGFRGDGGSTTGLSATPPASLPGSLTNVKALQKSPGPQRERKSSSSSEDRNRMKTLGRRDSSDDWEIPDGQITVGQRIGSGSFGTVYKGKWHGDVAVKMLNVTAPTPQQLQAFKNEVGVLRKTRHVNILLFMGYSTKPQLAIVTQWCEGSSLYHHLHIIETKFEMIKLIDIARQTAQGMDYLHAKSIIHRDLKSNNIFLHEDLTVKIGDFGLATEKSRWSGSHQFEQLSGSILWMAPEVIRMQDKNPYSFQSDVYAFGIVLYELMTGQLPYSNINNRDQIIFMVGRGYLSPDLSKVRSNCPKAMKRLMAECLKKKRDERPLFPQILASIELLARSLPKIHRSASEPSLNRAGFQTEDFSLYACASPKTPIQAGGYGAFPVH

[19] = biological target: c-Raf-1 (Y340D and Y341D mutations) (Homo sapiens, UniProt P04049, Y340D/Y341D)
Sequence of c-Raf-1 (Y340D and Y341D mutations) (P04049 whole entry Y340D/Y341D): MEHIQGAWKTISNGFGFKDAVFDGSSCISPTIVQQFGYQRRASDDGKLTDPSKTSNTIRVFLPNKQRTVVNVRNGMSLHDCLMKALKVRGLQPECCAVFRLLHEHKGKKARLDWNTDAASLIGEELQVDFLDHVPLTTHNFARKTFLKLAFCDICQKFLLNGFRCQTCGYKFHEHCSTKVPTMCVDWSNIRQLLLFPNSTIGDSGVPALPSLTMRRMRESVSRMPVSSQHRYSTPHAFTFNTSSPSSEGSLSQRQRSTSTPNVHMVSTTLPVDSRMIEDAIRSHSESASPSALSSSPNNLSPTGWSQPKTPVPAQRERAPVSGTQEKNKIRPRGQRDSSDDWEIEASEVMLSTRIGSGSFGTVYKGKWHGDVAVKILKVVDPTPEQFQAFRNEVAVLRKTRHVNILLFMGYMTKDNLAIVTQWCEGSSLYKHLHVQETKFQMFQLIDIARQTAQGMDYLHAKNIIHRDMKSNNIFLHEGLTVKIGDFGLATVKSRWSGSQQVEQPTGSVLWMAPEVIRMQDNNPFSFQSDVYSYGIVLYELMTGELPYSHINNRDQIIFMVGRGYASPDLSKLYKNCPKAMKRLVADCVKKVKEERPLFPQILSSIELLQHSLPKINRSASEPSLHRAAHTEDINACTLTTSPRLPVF

[20] = test system: PDGFR; conditions: read-out: IC50 PDGFR
[21] = test system: H460 cells; conditions: read-out: IC50 reduction of colony number and size
[22] = biological target: VEGFR3 (Homo sapiens, UniProt P35916)
Sequence of VEGFR3 (P35916 25-1363): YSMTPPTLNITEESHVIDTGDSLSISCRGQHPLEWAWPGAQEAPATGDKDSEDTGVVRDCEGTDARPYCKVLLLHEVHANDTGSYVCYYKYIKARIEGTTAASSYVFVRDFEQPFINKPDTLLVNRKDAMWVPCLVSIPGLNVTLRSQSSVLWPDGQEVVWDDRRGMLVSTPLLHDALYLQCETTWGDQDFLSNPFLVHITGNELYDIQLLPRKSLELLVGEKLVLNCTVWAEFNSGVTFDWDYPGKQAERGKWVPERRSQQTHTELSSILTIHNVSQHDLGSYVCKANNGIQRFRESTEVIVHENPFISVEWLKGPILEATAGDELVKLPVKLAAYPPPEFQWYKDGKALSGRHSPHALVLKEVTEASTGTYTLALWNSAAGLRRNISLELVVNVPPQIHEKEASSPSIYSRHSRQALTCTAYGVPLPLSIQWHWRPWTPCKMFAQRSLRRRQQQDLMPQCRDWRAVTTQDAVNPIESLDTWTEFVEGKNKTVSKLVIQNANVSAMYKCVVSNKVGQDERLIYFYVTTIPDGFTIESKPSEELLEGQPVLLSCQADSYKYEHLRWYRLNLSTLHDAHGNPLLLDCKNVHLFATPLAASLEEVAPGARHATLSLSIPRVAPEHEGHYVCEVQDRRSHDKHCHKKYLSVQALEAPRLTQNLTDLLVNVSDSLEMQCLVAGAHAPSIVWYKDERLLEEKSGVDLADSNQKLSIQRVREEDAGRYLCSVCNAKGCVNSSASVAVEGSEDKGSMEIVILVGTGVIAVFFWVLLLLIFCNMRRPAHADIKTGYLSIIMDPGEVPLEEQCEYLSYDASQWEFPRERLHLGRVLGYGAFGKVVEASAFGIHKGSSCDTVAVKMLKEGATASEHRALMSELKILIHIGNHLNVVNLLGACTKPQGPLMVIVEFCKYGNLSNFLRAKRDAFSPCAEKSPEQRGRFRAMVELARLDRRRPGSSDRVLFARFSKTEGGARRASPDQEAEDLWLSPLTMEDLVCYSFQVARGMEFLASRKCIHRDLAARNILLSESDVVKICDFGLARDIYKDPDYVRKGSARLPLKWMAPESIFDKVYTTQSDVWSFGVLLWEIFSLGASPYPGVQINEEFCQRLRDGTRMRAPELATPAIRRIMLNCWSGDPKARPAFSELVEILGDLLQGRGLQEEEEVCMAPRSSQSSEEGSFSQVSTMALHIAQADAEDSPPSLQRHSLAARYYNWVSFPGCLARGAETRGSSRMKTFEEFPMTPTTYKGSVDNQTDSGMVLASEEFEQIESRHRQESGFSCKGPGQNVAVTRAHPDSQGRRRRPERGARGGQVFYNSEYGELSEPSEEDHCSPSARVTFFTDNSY

[23] = test system: Akt1, CDKs, PLK1, EGFR, IGF-1R, c-Met, Flt2 etc.
[24] = test system: panel of 12 PMTs and DNMT1
[25] = test system: FGFR-1, Flt3, c-Met EGFR and IGF-1R
[26] = test system: FGFR-1, Flt3, c-Met EGFR and IGF-1R; remark: listed apart in the source
[27] = test system: cells expressing FGFR1 fusions
[28] = test system: MTC; conditions: randomized Phase 3, vandetanib compared to placebo
[29] = test system: VEGFR-stimulated cells; conditions: read-out: IC50 cell proliferation of VEGFR-stimulated cells
[30] = test system: EGFR-stimulated HUVEC; conditions: read-out: IC50 EGFR-stimulated HUVEC proliferation
[31] = test system: VEGFR-stimulated cells; conditions: read-out: IC50 cell proliferation of VEGFR-stimulated cells; remark: listed apart in the source
[32] = test system: EGFR-stimulated HUVEC; conditions: read-out: IC50 EGFR-stimulated HUVEC proliferation; remark: listed apart in the source

Sequence of EGFR (P00533 25-1210): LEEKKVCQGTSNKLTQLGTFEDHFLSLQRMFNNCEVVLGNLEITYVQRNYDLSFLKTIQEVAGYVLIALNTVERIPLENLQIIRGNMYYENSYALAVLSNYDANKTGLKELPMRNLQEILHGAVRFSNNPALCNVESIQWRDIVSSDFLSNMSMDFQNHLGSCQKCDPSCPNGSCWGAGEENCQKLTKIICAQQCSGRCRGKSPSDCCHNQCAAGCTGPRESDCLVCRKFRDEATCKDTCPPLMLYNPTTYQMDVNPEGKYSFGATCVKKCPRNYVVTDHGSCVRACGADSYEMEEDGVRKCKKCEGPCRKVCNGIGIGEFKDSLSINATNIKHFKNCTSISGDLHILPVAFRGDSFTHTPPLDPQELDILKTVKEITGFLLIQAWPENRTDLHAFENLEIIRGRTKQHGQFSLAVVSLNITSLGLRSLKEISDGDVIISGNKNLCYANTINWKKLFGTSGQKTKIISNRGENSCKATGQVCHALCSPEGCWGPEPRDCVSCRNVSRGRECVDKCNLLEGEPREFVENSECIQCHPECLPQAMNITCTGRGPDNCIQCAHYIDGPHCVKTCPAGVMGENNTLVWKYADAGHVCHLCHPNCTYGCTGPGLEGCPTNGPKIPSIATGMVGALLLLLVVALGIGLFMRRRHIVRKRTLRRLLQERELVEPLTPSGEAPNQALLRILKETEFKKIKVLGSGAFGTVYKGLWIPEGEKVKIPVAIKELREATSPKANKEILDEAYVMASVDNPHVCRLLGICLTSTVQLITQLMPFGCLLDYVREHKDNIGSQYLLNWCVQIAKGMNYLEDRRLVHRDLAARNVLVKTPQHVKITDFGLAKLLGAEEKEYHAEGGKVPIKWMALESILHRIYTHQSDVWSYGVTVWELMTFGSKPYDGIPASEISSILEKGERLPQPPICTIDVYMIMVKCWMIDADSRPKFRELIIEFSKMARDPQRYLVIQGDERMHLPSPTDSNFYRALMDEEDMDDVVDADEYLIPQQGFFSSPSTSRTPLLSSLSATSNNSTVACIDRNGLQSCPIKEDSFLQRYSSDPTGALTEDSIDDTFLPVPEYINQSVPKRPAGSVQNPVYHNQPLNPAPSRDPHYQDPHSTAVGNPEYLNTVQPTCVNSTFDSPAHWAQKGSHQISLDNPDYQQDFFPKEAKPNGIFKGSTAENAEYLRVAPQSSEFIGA

For `Nc1ncnc2c1c(-c1cccc(OCc3ccccc3)c1)cn2C1CC(CN2CCCC2)C1` (stereo in doubt) [NVP-ADW742, 5-(3-(benzyloxy)phenyl)-7-((1r,3r)-3-(pyrrolidin-1-ylmethyl)cyclobutyl)-7H-pyrrolo[2,3-d]pyrimidin-4-amine], the “activity to HER2, PDGFR, VEGFR-2, Bcr-Abl and c-Kit” value [1] is given as “little activity”.

For `CC(C)(C)c1cc(C=C(C#N)C#N)cc(Br)c1O` [AG-1024, 2-(3-bromo-5-tert-butyl-4-hydroxybenzylidene) malononitrile], the IC50 [2] is listed as 57000 nM.

In the case of `C=CC(=O)Nc1ccc2ncnc(Nc3ccc(OCc4cccc(F)c4)c(Cl)c3)c2c1.Cc1ccc(S(=O)(=O)O)cc1` [AST-1306, 2-Propenamide, N-[4-[[3-chloro-4-[(3-fluorophenyl)methoxy]phenyl]amino]-6-quinazolinyl]-, 4-methylbenzenesulfonate (1:1)], the “selective for ErbB family than other kinases” value [3] is listed as 3000 fold.

In the case of `S=C(NCc1ccc2c(c1)OCO2)N1CCN(c2ncnc3c2oc2ccccc23)CC1` [Amuvatinib], the IC50 [4] is listed as 40 nM and the IC50 [5] is listed as 40 nM.

In the case of `Cn1c(=O)n(-c2ccc(C(C)(C)C#N)cc2)c2c3cc(-c4cnc5ccccc5c4)ccc3ncc21` [BEZ235, 2-methyl-2-(4-(3-methyl-2-oxo-8-(quinolin-3-yl)-2,3-dihydroimidazo[4,5-c]quinolin-1-yl)phenyl)propanenitrile], the “inhibition of Akt and PDK1” value [6] is given as “poor inhibitory”.

For `CCN1CCN(c2ccc(Nc3cc(N(C)C(=O)Nc4c(Cl)c(OC)cc(OC)c4Cl)ncn3)cc2)CC1` [BGJ398, 3-(2,6-dichloro-3,5-dimethoxyphenyl)-1-(6-(4-(4-ethylpiperazin-1-yl)phenylamino)pyrimidin-4-yl)-1-methylurea], the “activity to Abl, Fyn, Kit, Lck, Lyn and Yes” value [7] is given as “little activity” and the “activity to Abl, Fyn, Kit, Lck, Lyn and Yes” value [8] is given as “little activity”.

In the case of `COc1cc2nccc(Oc3ccc(NC(=O)NC4CC4)c(Cl)c3)c2cc1C(N)=O` [E7080, 1-(4-(6-carbamoyl-7-methoxyquinolin-4-yloxy)-2-chlorophenyl)-3-cyclopropylurea], the “more selective for VEGFR2/3 against FGFR1, PDGFRα/β” value [9] is listed as roughly 10 fold.

For `CO[C@H]1C[C@@H]2CC[C@@H](C)[C@@](O)(O2)C(=O)C(=O)N2CCCC[C@H]2C(=O)O[C@H]([C@@H](C)C[C@@H]2CC[C@@H](OCCO)[C@H](OC)C2)CC(=O)[C@H](C)/C=C(\C)[C@@H](O)[C@@H](OC)C(=O)C(C)C[C@H](C)/C=C/C=C/C=C/1C` (some centres unmarked) [Everolimus, 23,27-Epoxy-3H-pyrido[2,1-c][1,4]oxaazacyclohentriacontine, rapamycin deriv], the IC50 [10] is listed as 1.6 to 2.4 nM.

In the case of `COc1cc2c(Oc3ccc(NC(=O)C4(C(=O)Nc5ccc(F)cc5)CC4)cc3F)ccnc2cc1OCCCN1CCOCC1` [Foretinib, N-(3-fluoro-4-(6-methoxy-7-(3-morpholinopropoxy)quinolin-4-yloxy)phenyl)-N-(4-fluorophenyl)cyclopropane-1,1-dicarboxamide], the “activity to FGFR1 and EGFR” value [11] is listed as “little activity”.

For `COc1ncc(-c2ccc3nccc(-c4ccnnc4)c3c2)cc1NS(=O)(=O)c1ccc(F)cc1F` [GSK2126458, 2,4-difluoro-N-(2-methoxy-5-(4-(pyridazin-4-yl)quinolin-6-yl)pyridin-3-yl)benzenesulfonamide], the Ki [12] is listed as 0.024 nM.

For `CCCNC(=O)Nc1ccc(Oc2ncnc3cc(OC)c(OC)cc23)cc1Cl` [KRN 633, 1-(2-chloro-4-(6,7-dimethoxyquinazolin-4-yloxy)phenyl)-3-propylurea], the “block of the phosphorylation of FGFR-1, EGFR or c-Met in cell” value [13] is given as “does not block”.

For `COc1ccc(-c2ccc3c(N4CCOCC4)nc(N4C[C@@H](C)O[C@@H](C)C4)nc3n2)cc1CO` [KU-0063794, (5-(2-((2R,6S)-2,6-dimethylmorpholino)-4-morpholinopyrido[2,3-d]pyrimidin-7-yl)-2-methoxyphenyl)methanol], the “effect on PI3Ks” value [14] is given as “no effect”.

For `O=C(c1ccc(/C=C/c2n[nH]c3ccccc23)cc1)N1CCNCC1` [KW-2449, (E)-(4-(2-(1H-indazol-3-yl)vinyl)phenyl)(piperazin-1-yl)methanone], the “effect on PDGFRβ, IGF-1R, EGFR” value [15] is listed as “little effect”.

For `O=C(O)CC[C@H]1CC[C@@](c2cc(F)ccc2F)(S(=O)(=O)c2ccc(Cl)cc2)CC1` [MK-0752, 3-((1r,4s)-4-(4-chlorophenylsulfonyl)-4-(2,5-difluorophenyl)cyclohexyl)propanoic acid], the IC50 [16] is given as 5 nM.

For `COc1ccc(-c2cc3c(C)nc(N)nc3n([C@H]3CC[C@H](OCCO)CC3)c2=O)cn1` [PF-04691502, 2-amino-8-((1r,4r)-4-(2-hydroxyethoxy)cyclohexyl)-6-(6-methoxypyridin-3-yl)-4-methylpyrido[2,3-d]pyrimidin-7(8H)-one], the “activity against Vps34, AKT, PDK1, p70S6K, MEK, ERK, p38, or JNK” value [17] is given as “little activity”.

In the case of `CCCS(=O)(=O)Nc1ccc(F)c(C(=O)c2c[nH]c3ncc(Cl)cc23)c1F` [PLX4720, N-(3-(5-chloro-1H-pyrrolo[2,3-b]pyridine-3-carbonyl)-2,4-difluorophenyl) propane-1-sulfonamide], the “selectivity for B-RafV600E than wild-type B-Raf” value [18] is given as 10 fold and the “potency to c-Raf-1 (Y340D and Y341D mutations) relative to B-Raf V600E” value [19] is given as “equally potent”.

For `Nc1ncnc2c1c(-c1cnc3[nH]ccc3c1)nn2C1CCCC1` [PP-121, 1-cyclopentyl-3-(1H-pyrrolo[2,3-b]pyridin-5-yl)-1H-pyrazolo[3,4-d]pyrimidin-4-amine], the IC50 [20] is listed as 2 nM.

For `COc1cc2c(cc1OC)C(=Cc1ccc(O)cc1)C(=O)N2` [RPI-1, 1,3-dihydro-5,6-dimethoxy-3-[(4-hydroxyphenyl)methylene]-H-indol-2-one], the IC50 [21] is listed as 24500 nM.

In the case of `CCn1c(N)c(C(=O)NC)c(=O)c2ccc(C#C[C@@](C)(O)COC)nc21` [SAR131675, (R)-2-amino-1-ethyl-7-(3-hydroxy-4-methoxy-3-methylbut-1-ynyl)-N-methyl-4-oxo-1,4-dihydro-1,8-naphthyridine-3-carboxamide], the Ki [22] is given as 12 nM, the “more selective for VEGFR3 than VEGFR1” value [22] is given as “about 50 fold” and the “more selective for VEGFR3 than VEGFR2” value [22] is given as roughly 10 fold. For the same compound, the IC50 ([22]; read-out: IC50 VEGFR3 (Flt4)) was 23 nM and the “activity against Akt1, CDKs, PLK1, EGFR, IGF-1R, c-Met, Flt2 etc.” value [23] was “little activity”.

In the case of `CC(C)N(CCCNC(=O)Nc1ccc(C(C)(C)C)cc1)C[C@H]1O[C@@H](n2cc(Br)c3c(N)ncnc32)[C@H](O)[C@@H]1O` [SGC 0946, 1-[3-[[[(2R,3S,4R,5R)-5-(4-Amino-5-bromo-7H-pyrrolo[2,3-d]pyrimidin-7-yl)-3,4-dihydro-xytetrahydrofuran-2-yl]methyl](isopropyl)amino]pro-pyl]-3-[4-(2,2-dimethylethyl)phenyl]urea], the “activity against a panel of 12 PMTs and DNMT1” value [24] is given as “inactive”.

In the case of `COc1cc2nccc(Oc3ccc(NC(=O)Nc4cc(C)on4)c(Cl)c3)c2cc1OC` [Tivozanib, 1-(2-chloro-4-(6,7-dimethoxyquinolin-4-yloxy)phenyl)-3-(5-methylisoxazol-3-yl)urea], the “activity against FGFR-1, Flt3, c-Met EGFR and IGF-1R” value [25] is given as “low activity” and the “activity against FGFR-1, Flt3, c-Met EGFR and IGF-1R” value [26] is given as “low activity”.

For `Cc1nc(Nc2ncc(C(=O)Nc3c(C)cccc3Cl)s2)cc(N2CCN(CCO)CC2)n1` [dasatinib], the “sensitivity of cells expressing FGFR1 fusions” value [27] is given as “sensitivity”.

For `COc1cc2c(Nc3ccc(Br)cc3F)ncnc2cc1OCC1CCN(C)CC1` [vandetanib], the PFS [28] is given as “significant improvement in PFS”, the IC50 [29] is given as 60 nM and the IC50 [30] is given as 170 nM. The IC50 [31] was 60 nM and the IC50 [32] was 170 nM.
